Laboratory results: patent publication US20040198800A1, “Lipoxygenase inhibitors as hypolipidemic and anti-hypertensive agents” (priority 2002, published 2004)

Experiments:
[1] = system: high-fructose diet fed rats; experiment: Example 1: in vivo efficacy of 5-LO inhibitors in diet-induced model of hypertriglyceridemia and hypertension (serum TG, FFA, insulin, glucose, body weight); design: species or system Sprague-Dawley rats; conditions: oral gavage twice a day for 5 days; for effect on serum triglycerides: NDGA 250 mg/kg (p=0.0004), BW 755c 100 mg/kg (p=0.0002), day 0 vs day 5, FIG. 1; for effect on serum insulin levels: NDGA 250 mg/kg (p=0.003); for effect on serum insulin levels / effect on increase in serum free fatty acids during treatment / effect on serum glucose: BW 755c 100 mg/kg; for effect on increase in serum free fatty acids during treatment / effect on serum glucose: NDGA 250 mg/kg
From the text: Male Sprague-Dawley rats weighting 175-200 g were used in these studies. […]. Rats were first maintained on a chow diet for ˜1 wk and then were divided into four groups (7 or 8 animals in each group). Three groups were switched to a high-fructose diet (Harlan Teklad, Madison, Wis.) that provided 60% of total calories as fructose. The fourth group was maintained on normal chow to serve as an overall control group. After 14 days on the high-fructose diet, the degree of hypertriglyceridemia was evaluated by determining the total plasma TG levels. On day 0 of treatment, tail vein blood was collected for baseline measurements of serum TG, glucose, insulin, and FFA. […] All animals were dosed two times a day for 5 days (days 1-5), delivered by oral gavage. On day 5 of treatment (approximately 3 hours after the oral dose) vein blood was collected for measurements of serum TG, glucose, insulin, and FFA. During the treatment period, rats were maintained on their prescribed diets. Body weights were measured on day 0 and day 5.
Serum samples were used to measure TG and glucose concentrations by enzymatic […] methods using Sigma Diagnostic kits (St. Louis, Mo.). Serum insulin concentrations were by RIA using a Linco Rat Insulin RIA kit (St. Charles, Mo.). FFA concentrations were measured using the nonesterified fatty acid (NEFA) C kit by the ACS-ACOD method following the instructions of the manufacturer.
Data was statistically analyzed using paired t-tests to determine significance.

[2] = system: high fructose fed (HFF) rats; experiment: Example 2: effect of lipoxygenase inhibitors on serum metabolic components of HFF rats; type: in vivo, Sprague-Dawley rats; conditions: for Cholesterol, Day 15 / Cholesterol, Day 19: serum total cholesterol; for Cholesterol, Day 19 / Glucose, Day 19 / FFA, Day 19 / Insulin, Day 19 / TG, Day 19: Day 19 after 4 days BID oral gavage (NDGA 250 mg/kg, BW 755c 100 mg/kg); for Glucose, Day 19: 3 hours after last dose
Procedure: Male rats were initially divided into HFF or chow (control) groups and maintained for 14 days on the prescribed diet. […] On days 15-19 all groups were treated by oral gavage twice daily with either drug or vehicle. On days 15 and 19 serum was collected for analysis. On day 20, the groups were subdivided to receive either LPS or vehicle (saline). Post-LPS treatment, the animals were sacrificed and their livers were isolated for analysis.
Male Sprague-Dawley rats weighing approximately 180-200 g first maintained on a rat chow diet and then were divided into four groups, three of which were switched to a high-fructose diet (Harlan Teklad, Madison, Wis.) that provided 60% of total calories as fructose (Day 1). On day 15 of treatment, the rats were fasted for 4 hours and tail vein blood was collected for baseline measurements of serum TG, glucose, insulin and free fatty acids (FFA) as previously described (Gowri et al., Am. J. Hypertension, 12: 744-746 (1999)). […] The chow group (diet control) was treated with vehicle. During the treatment regimen the animals were maintained on high-fructose diet. […] On day 20, four animals in each group were injected (iv) with 0.5 mg/kg BW Salmonella enterifdis endotoxin (lipopolysaccharide, LPS) or normal saline under light anaesthesia. After 2 hours, serum was collected for corticosterone measurement, as described previously (Kraemer et al., Endocrinology, 143: 801-806 (2002)), and then the animals were sacrificed and tissues removed, snap-frozen in liquid nitrogen and stored at −80° C. until analyzed. The local committee on animal care approved all animal protocols.
Statistical analysis were performed by either paired or unpaired t-test using GraphPad Prism version 3.00 for Windows, GraphPad Software, San Diego Calif. USA. A difference between groups was considered significant if P was less than 0.05. Normalized Western Blot data were obtained as a ratio of the units measured for phosphorylated protein divided by the units measured for total protein. Statistical analyses were performed on the normalized data.

[3] = background statement; cited from earlier work
diabetic rat model = conditions: Babu et al. 1997; cited from earlier work
in vivo animal models = conditions: Maya et al. 2000; Scribner et al. 2000; cited from earlier work
[4] = Day 15 = baseline before drug treatment, mean ± S.E., n = 7-8
[5] = serum, Day 15 = baseline before drug treatment, mean ± S.E., n = 7-8

Compound	effect on serum triglycerides [1]	effect on serum insulin levels [1]	effect on increase in serum free fatty acids during treatment [1]	effect on serum glucose [1]	effect on serum total cholesterol ([2]; four days BID oral treatment)	Cholesterol, Day 15 [2, 4] [mg/dL]	Cholesterol, Day 19 ([2]; mean ± S.E., n = 7-8)	Glucose, Day 15 ([2]; serum, Day 15 = baseline before drug treatment, 4 h fasted, mean ± S.E., n = 7-8) [mg/dL]	FFA, Day 15 [2, 5] [μEq/L]	Insulin, Day 15 [2, 5] [ng/mL]	TG, Day 15 [2, 5] [mg/dL]	Glucose, Day 19 ([2]; serum, mean ± S.E., n = 7-8) [mg/dL]	FFA, Day 19 ([2]; serum, mean ± S.E., n = 7-8) [μEq/L]	Insulin, Day 19 ([2]; serum, mean ± S.E., n = 7-8)	TG, Day 19 ([2]; serum, mean ± S.E., n = 7-8)	bioavailability [3]	properties in in vivo diabetic rat model (diabetic rat model)	effect on fasting blood glucose ([2]; four days BID oral treatment)	effect on fasting serum insulin ([2]; four days BID oral treatment)	properties in in vivo animal models (in vivo animal models)
NC1=NN(c2cccc(C(F)(F)F)c2)CC1 [BW 755c, 4,5-dihydro-1-(3-(trifluoromethyl)phenyl)-1H-pyrazol-3-amine]	significantly reduced	no effect	ameliorated	no effect	Neither of these effects was observed	107.6 ± 3	104.5 ± 2 mg/dL	119 ± 7	554 ± 71	1.6 ± 0.3	296 ± 31	114 ± 7	504 ± 42	1.7 ± 0.3 ng/mL	112 ± 20(^4) mg/dL	–	–	–	–	–
COc1cc(/C=C/C(=O)CC(=O)/C=C/c2ccc(O)c(OC)c2)ccc1O [Curcumin]	–	–	–	–	–	–	–	–	–	–	–	–	–	–	–	poorly bioavailable	hypolidemic properties	–	–	–
C[C@H](Cc1ccc(O)c(O)c1)[C@@H](C)Cc1ccc(O)c(O)c1 [NDGA, nordihydroguaiaretic acid]	significantly reduced	significantly lowered	ameliorated	without increasing serum glucose	significantly reduced	118.6 ± 3	98.3 ± 4(^7) mg/dL	–	599 ± 51	2.3 ± 0.3	384 ± 48	122 ± 8	611 ± 101	0.9 ± 0.1(′) ng/mL	97 ± 6 mg·s/dL	poorly bioavailable	–	without significantly altering	significantly decreased	hypolipidemic and antihypertensive properties
